Assays:
[1] = target: T1, GDP-loaded KRAS (1-169) G12C, C51S, C80L, C118S (Homo sapiens, UniProt P01116, C118S/C51S/C80L/G12C); experiment: Mass Spectrometry Reactivity Assay (MSRA): covalent adduct of compound and KRAS G12C, Percent Modification; type: binding; conditions: for MSRA (% modification) 5.0 μM 0.017 hr: 5.0 μM compound; for MSRA (% modification) 10 μM 0.50 hr: 10 μM compound
T1 construct: GDP-loaded KRAS (1-169) G12C, C51S, C80L, C118S
Description: Mass Spectrometry Reactivity Assay (MSRA)
Compounds presented in the present invention covalently bind to KRAS G12C using MSRA to detect a covalent adduct of the exemplary compound and KRAS G12C.
GDP-loaded KRAS (1-169) G12C, C51S, C80L, C118S were diluted in the protein assay buffer 25 mM Hepes pH7.5, 200 mM NaCl, 5% glycerol to concentration of 5 μM and 20 μl of protein was transferred into 96-well plate. Initial compound stocks were generated at concentrations 100-fold higher that their desired assay concentrations. See K-Ras(G12C) inhibitors allosterically control GTP affinity and effector interactions; Ostrem J M, Peters U, Sos M L, Wells J A, Shokat K M; Nature. 2013, Nov. 28; 503(7477):548-51.
Exemplary compounds dissolved in DMSO were diluted 100-fold into solution containing 20 μl of 5 μM KRAS protein in the 96-well plate to initiate the reaction. Mosquito (TPP Lab tech) liquid handling robot was used to add compounds to protein solution. Typical final concentration of the compounds was 5 μM or 10 μM. The plates were placed on a shaker for 1 min at RT, sealed and incubated at room temperature for specified time period. 5 μl of reaction mix was added to 10 μl of 0.2% formic acid stop solution and mixed well. Typical end points were 1, 15, 30, and 60 min.
Data were collected using Waters Acquity H-class UPLC system/Xevo G2-XS TOF mass spectrometer. The protein was injected in their liquid phase onto a Bruker Microtrap protein column TR1/15109/03. The following buffers were used to set LC gradient: Buffer A: 0.2% formic acid H2O; B: 0.2% formic acid CAN. The protein was eluted from the column using the following LC Gradient: 0-0.4 min, 10% B to 30% B; 0.4 min-2.4 min, to 90% B, 2.5 min, 10% B, 3 min, 10% B. Initial data analysis was performed using MaxEnt software right after data acquisition.
The standard auto processing function was used to define percentage of unmodified and modified KRAS protein using MexEnt software right after data acquisition. The highest peak was defined as 100% while smaller peak as assigned the number defined by autoprocessing function. The percent of modification corresponding to modified with exemplary compound and unmodified KRAS GDP-loaded KRAS (1-169) G12C, C51S, C80L, C118S were exported to Xcel data analysis software.
The percent of modified protein at the defined concentration of exemplary compound was calculated using the following formula: % mod=Num of modified peak/Sum of modified+unmodified. The resultant value defined as Percent Modification (PM) and an increase in PM reflects that the specific compound is better than other compounds at specified compound concentration at a given time point.

[2] = target: KRAS G12C (Homo sapiens, UniProt P01116, G12C); experiment: Cell Activity Assay: accumulation of GDP-bound KRAS G12C in MIAPaCa-2 cells (Raf-1 RBD capture, MSD readout); type: cell-based; design: endogenous in cells; host or cells: MIAPaCa-2; conditions: 6 hours, assay limit is 30.00
Description: Compounds presented in the present invention lead to the accumulation of the GDP bound Ras upon treatment of human cancer cell line.
The accumulation of the GDP-bound KRAS G12C in cellular environment was measured based on the principle that KRAS G12C only binds to its downstream kinase; Raf-1 (MAP Kinase Kinase Kinase), when in its active-GTP bound state. In this state, Ras binded to a domain of Raf-1 kinase referred to as the Ras Binding Domain (RBD).
MIAPaCa-2 cells were grown in RPMI 1640 medium (Gibco 11875) supplemented with 10% fetal bovine serum and 1% penicillin/streptomycin. Cells were seeded in 96-well tissue culture plates at a density of 30,000 cells/well and allowed to attach for 16-24 hours. Test compounds were prepared as a 10 mM stock in DMSO and serially diluted in 100% DMSO using a 3-fold dilution scheme. An intermediate 5× concentrated plate in complete growth medium was made and 25 μl/well was added to the 100 μl of cells for a final concentration of 0.3% DMSO. Each concentration of exemplary compound was tested in duplicate. The negative control wells were cells with control inhibitor at 10 μM, and the positive control wells were cells without drugs, DMSO only. Plates were incubated for 6 hours at 37° C., 5% CO2. Following treatment, cells were washed 3× with ice-cold PBS and 115 μl/well ice-cold 1× Assay/Lysis. Buffer with protease inhibitors was added (25 mM HEPES, pH 7.5, 150 mM NaCl, 1% NP-40, 10 mM MgCl2, 1 mM EDTA, 2% Glycerol). Following lysis samples were frozen at −80° C.
Raf-1 RBD (LJIC-1988A1) was diluted to 100 ng/well in PBS and 5 μl/well was spot coated onto MSD high bind SECTOR plates (L15XB). Plates were incubated at room temperature for 1 hour on an orbital shaker. Plates were washed with PBS/0.05% Tween-20 and 50 μl/well of thawed lysate samples were added, followed by 50 μl of 1% MSD Blocker A in PBS/0.05 Tween-20 (R93BA). Plates were incubated for 1 hour on an orbital shaker and washed with PBS/0.05% Tween-20. 25 μl/well of Anti-pan-Ras Antibody (Cell Biolabs 244003) diluted 1:3000 was added in 1% MSD Blocker A solution and plates were incubated for 1 hour on an orbital shaker and washed with PBS/0.05% Tween-20. SULFO-TAG goat anti-mouse secondary antibody (MSD R32AC) was diluted 1:500 in MSD Blocker A solution and added at 25 μL/well. Plates were incubated for 1 hour on an orbital shaker and washed with PBS/0.05% Tween-20. 150 μl/well of Read Buffer T (MSD R92TC) diluted 1:3 in H2O was added and plates were read on a Meso Scale Discovery Sector Imager S600.
KRAS signal was normalized to maximum inhibition and DMSO control values, and IC50 values were generated using a 4 parameter fit of the dose response curve. The decrease in IC50 reflects that the exemplary compound lead to a higher level of accumulation of GDP-bound KRAS G12C than another exemplary compounds at specific timepoint of treatment of cancer cell line.

MSRA (% modification) 5.0 μM 0.017 hr [1] | IC50 [2] | MSRA (% modification) 10 μM 0.50 hr [1] | SMILES
42% | 0.094 µM |  | C=CC(=O)N1CCN(c2nc(O[C@@H]3CN(C)C[C@H]3CC)nc3c(Oc4c(Cl)c(F)cc5[nH]ncc45)nccc23)CC1 (racemic) [Example 21I, rac-1-[4-(8-[(5-chloro-6-fluoro-1H-indazol-4-yl)oxy]-2-{[(3S,4R)-4-ethyl-1-methyl-pyrrolidin-3-yl]oxy}pyrido [3,4-d]pyrimidin-4-yl)piperazin-1-yl]prop-2-en-1-one]
12% | 0.348 µM |  | C=CC(=O)N1CCN(c2nc(O[C@@H]3COC[C@H]3N(C)C)nc3c(Oc4c(Cl)c(F)cc5[nH]ncc45)nccc23)CC1 (racemic) [Example 23I, rac-1-[4-(8-[(5-chloro-6-fluoro-1H-indazol-4-yl)oxy]-2-{[(3S,4R)-4-(dimethyl-amino)oxolan-3-yl]oxy}pyrido [3,4-d]pyrimidin-4-yl)piperazin-1-yl]prop-2-en-1-one]
20% |  |  | C=CC(=O)N1CCN(c2nc(O[C@@H]3CN(C)C[C@H]3C)nc3c(Oc4c(Cl)c(F)cc5[nH]ncc45)nccc23)CC1 (racemic) [Example 24I, rac-1-[4-(8-[(5-chloro-6-fluoro-1H-indazol-4-yl)oxy]-2-{[(3S,4R)-1,4-dimethyl-pyrrolidin-3-yl]oxy}pyrido [3,4-d]pyrimidin-4-yl)piperazin-1-yl]prop-2-en-1-one]
6% |  |  | C=CC(=O)N1CCN(c2nc(O[C@H]3CN(C)C[C@H]3C)nc3c(Oc4c(Cl)c(F)cc5[nH]ncc45)nccc23)CC1 (racemic) [Example 25I, rac-1-[4-(8-[(5-chloro-6-fluoro-1H-indazol-4-yl)oxy]-2-{[(3S,4S)-1,4-dimethyl-pyrrolidin-3-yl]oxy}pyrido [3,4-d]pyrimidin-4-yl)piperazin-1-yl]prop-2-en-1-one]
35% | 0.195 µM |  | C=CC(=O)N1CCN(c2nc(O[C@@H]3CN(C)C[C@@H]3OC)nc3c(Oc4c(Cl)c(F)cc5[nH]ncc45)nc(Cl)cc23)CC1 (racemic) [Example 26G, rac-1-[4-(6-chloro-8-[(5-chloro-6-fluoro-1H-indazol-4-yl)oxy]-2-{[(3R,4S)-4-methoxy-1-methylpyrrolidin-3-yl]oxy}pyrido[3,4-d]pyrimidin-4-yl)piperazin-1-yl]prop-2-en-1-one]
15% |  |  | C=CC(=O)N1CCN(c2nc(O[C@@H]3CCN(CCOC)C[C@H]3C)nc3c(Oc4c(Cl)c(F)cc5[nH]ncc45)nccc23)CC1 (racemic) [Example 27I, rac-1-[4-(8-[(5-chloro-6-fluoro-1H-indazol-4-yl)oxy]-2-{[(3R,4R)-1-(2-methoxy-ethyl)-3-methyl-piperidin-4-yl]oxy}pyrido [3,4-d]pyrimidin-4-yl)piperazin-1-yl]prop-2-en-1-one]
16% |  |  | C=CC(=O)N1CCN(c2nc(O[C@@H]3CCN(C)C[C@H]3C)nc3c(Oc4c(Cl)c(F)cc5[nH]ncc45)nccc23)CC1 (racemic) [Example 29I, rac-1-[4-(8-[(5-chloro-6-fluoro-1H-indazol-4-yl)oxy]-2-{[(3R,4R)-1,3-dimethyl-piperidin-4-yl]oxy}pyrido [3,4-d]pyrimidin-4-yl)piperazin-1-yl]prop-2-en-1-one]
 |  | 26% | C=CC(=O)N1CCN(c2ncnc3c(Oc4c(Br)ccc5[nH]ncc45)cccc23)CC1 [Example 11C, 1-(4-(8-((5-bromo-1H-indazol-4-yl)oxy)quinazolin-4-yl)piperazin-1-yl)prop-2-en-1-one]
 |  | 12% | C=CC(=O)N1CCN(c2ncnc3c(Oc4c(Br)ccc5[nH]ncc45)nccc23)CC1 [Example 15C, 1-(4-{8-[(5-bromo-1H-indazol-4-yl)oxy]pyrido[3,4-d]pyrimidin-4-yl}piperazin-1-yl)prop-2-en-1-one]
17% |  |  | C=CC(=O)N1CCN(c2nc(OC3CN(C)CC34CC4)nc3c(Oc4c(Cl)c(F)cc5[nH]ncc45)nccc23)CC1 (stereo not shown) [Example 26I, 1-(4-{8-[(5-chloro-6-fluoro-1H-indazol-4-yl)oxy]-2-[(5-methyl-5-azaspiro [2.4]heptan-7-yl)oxy]pyrido [3,4-d]pyrimidin-4-yl}piperazin-1-yl)prop-2-en-1-one]
16% |  |  | C=CC(=O)N1CCN(c2nc(O[C@@H]3CN(C)C[C@H]3OC)nc3c(Oc4c(Cl)c(F)cc5[nH]ncc45)nccc23)C[C@@H]1C [Example 37I, 1-[(2S)-4-(8-[(5-chloro-6-fluoro-1H-indazol-4-yl)oxy]-2-{[(3R,4R)-4-methoxy-1-methyl-pyrrolidin-3-yl]oxy}pyrido [3,4-d]pyrimidin-4-yl)-2-methyl-piperazin-1-yl]prop-2-en-1-one]
7% |  |  | C=CC(=O)N1CCN(c2nc(Oc3cc4n(n3)CCN(C)C4)nc3c(Oc4c(Cl)c(F)cc5[nH]ncc45)nccc23)CC1 [Example 45I, 1-(4-{8-[(5-chloro-6-fluoro-1H-indazol-4-yl)oxy]-2-[(5-methyl-4,5,6,7-tetrahydro-pyrazolo [1,5-a]pyrazin-2-yl)oxy]pyrido [3,4-d]pyrimidin-4-yl}piperazin-1-yl)prop-2-en-1-one]
14% |  |  | C=CC(=O)N1CCN(c2nc(Oc3nn(C)c4c3CCN(C)C4)nc3c(Oc4c(Cl)c(F)cc5[nH]ncc45)nccc23)CC1 [Example 47I, 1-(4-{8-[(5-chloro-6-fluoro-1H-indazol-4-yl)oxy]-2-[(1,6-dimethyl-4,5,6,7-tetrahydro-1H-pyrazolo [3,4-c]pyridin-3-yl)oxy]pyrido [3,4-d]pyrimidin-4-yl}piperazin-1-yl)prop-2-en-1-one]

From US10662204B2 (PFIZER INC., priority 2018, dated 2020)
